According to patent US20050112573A1, “Method of detecting toxic substance” (priority 2001, published 2005):

System: yeast genes (level of expressed mRNA)
Assay: DNA chip analysis of expressed mRNA of yeast genes after 2 h culture with a toxic chemical substance
Assay type: cell-based, Saccharomyces cerevisiae S288C
In short: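 Values are treated-to-control fluorescence ratios from a whole-yeast-genome DNA chip (65° C, over 12 h hybridization) using Cy3/Cy5-labelled cDNA from mRNA. Log-phase S288C cells in YPD at 25° C were exposed 2 h to a toxicant at sublethal, growth-inhibiting concentration.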

γ-hexachlorocyclohexane [(7)]
The level of expressed mRNA in the presence of chemical substance/ (yeast gene YFL010C, ratio to control without chemical substance, 2 h culture): 1.5
The level of expressed mRNA in the presence of chemical substance/ (yeast gene YFL024C, ratio to control without chemical substance, 2 h culture): 3.3
The level of expressed mRNA in the presence of chemical substance/The level of expressed mRNA in the absence of chemical substance (yeast gene YFL028C): 2.0
The level of expressed mRNA in the presence of chemical substance/ (yeast gene YFL032W, ratio to control without chemical substance, 2 h culture): 1.1
The level of expressed mRNA in the presence of chemical substance/The level of expressed mRNA in the absence of chemical substance (yeast gene YFL043C): 1.8
The level of expressed mRNA in the presence of chemical substance/in the absence of chemical substance (yeast gene YGL035C): 1.2
The level of expressed mRNA in the presence of chemical substance/ (yeast gene YGL037C, ratio to control without chemical substance, 2 h culture): 2.9
The level of expressed mRNA in the presence of chemical substance/ (yeast gene YGL047W, ratio to control without chemical substance, 2 h culture): 1.7
The level of expressed mRNA in the presence of chemical substance/ (yeast gene YGL053W, ratio to control without chemical substance, 2 h culture): 3.7
The level of expressed mRNA in the presence of chemical substance/ (yeast gene YGL121C, ratio to control without chemical substance, 2 h culture): 4.7
The level of expressed mRNA in the presence of chemical substance/The level of expressed mRNA in the absence of chemical substance (yeast gene YGL158W): 1.3
The level of expressed mRNA in the presence of chemical substance/ (yeast gene YGL199C, ratio to control without chemical substance, 2 h culture): 1.3
The level of expressed mRNA in the presence of chemical substance/The level of expressed mRNA in the absence of chemical substance (yeast gene YGL229C): 2.2
The level of expressed mRNA in the presence of chemical substance/ (yeast gene YGR101W, ratio to control without chemical substance, 2 h culture): 1.5
The level of expressed mRNA in the presence of chemical substance/ (yeast gene YGR110W, ratio to control without chemical substance, 2 h culture): 1.7
The level of expressed mRNA in the presence of chemical substance/ (yeast gene YGR130C, ratio to control without chemical substance, 2 h culture): 1.3
The level of expressed mRNA in the presence of chemical substance/The level of expressed mRNA in the absence of chemical substance (yeast gene YGR136W): 1.5
The level of expressed mRNA in the presence of chemical substance/ (yeast gene YGR154C, ratio to control without chemical substance, 2 h culture): 2.0
The level of expressed mRNA in the presence of chemical substance/The level of expressed mRNA in the absence of chemical substance (yeast gene YGR189C): 0.6
The level of expressed mRNA in the presence of chemical substance/The level of expressed mRNA in the absence of chemical substance (yeast gene YGR213C): 7.0
The level of expressed mRNA in the presence of chemical substance/ (yeast gene YGR221C, ratio to control without chemical substance, 2 h culture): 1.2
The level of expressed mRNA in the presence of chemical substance/The level of expressed mRNA in the absence of chemical substance (yeast gene YGR257C): 2.4
The level of expressed mRNA in the presence of chemical substance/in the absence of chemical substance (yeast gene YGR287C): 2.2
The level of expressed mRNA in the presence of chemical substance/The level of expressed mRNA in the absence of chemical substance (yeast gene YHR004C): 1.5
The level of expressed mRNA in the presence of chemical substance/The level of expressed mRNA in the absence of chemical substance (yeast gene YHR071W): 1.0
The level of expressed mRNA in the presence of chemical substance/ (yeast gene YHR138C, ratio to control without chemical substance, 2 h culture): 3.0
The level of expressed mRNA in the presence of chemical substance/The level of expressed mRNA in the absence of chemical substance (yeast gene YHR139C): 1.5
The level of expressed mRNA in the presence of chemical substance/The level of expressed mRNA in the absence of chemical substance (yeast gene YHR142W): 0.9
The level of expressed mRNA in the presence of chemical substance/ (yeast gene YHR199C, ratio to control without chemical substance, 2 h culture): 1.1
The level of expressed mRNA in the presence of chemical substance/ (yeast gene YIL023C, ratio to control without chemical): 1.2
The level of expressed mRNA in the presence of chemical substance/ (yeast gene YIL041W, ratio to control without chemical substance, 2 h culture): 0.8
The level of expressed mRNA in the presence of chemical substance/ (yeast gene YIL087C, ratio to control without chemical substance, 2 h culture): 1.8
The level of expressed mRNA in the presence of chemical substance/The level of expressed mRNA in the absence of chemical substance (yeast gene YIL123W): 0.5
The level of expressed mRNA in the presence of chemical substance/The level of expressed mRNA in the absence of chemical substance (yeast gene YIL140W): 0.5
The level of expressed mRNA in the presence of chemical substance/ (yeast gene YJL057C, ratio to control without chemical substance, 2 h culture): 2.7
The level of expressed mRNA in the presence of chemical substance/ (yeast gene YJL066C, ratio to control without chemical substance, 2 h culture): 1.6
The level of expressed mRNA in the presence of chemical substance/in the absence of chemical substance (yeast gene YJL070C): 1.4
The level of expressed mRNA in the presence of chemical substance/ (yeast gene YJL082W, ratio to control without chemical substance, 2 h culture): 0.4
The level of expressed mRNA in the presence of chemical substance/The level of expressed mRNA in the absence of chemical substance (yeast gene YJL089W): 1.1
The level of expressed mRNA in the presence of chemical substance/The level of expressed mRNA in the absence of chemical substance (yeast gene YJL116C): 0.8
The level of expressed mRNA in the presence of chemical substance/ (yeast gene YJL151C, ratio to control without chemical substance, 2 h culture): 1.4
The level of expressed mRNA in the presence of chemical substance/ (yeast gene YJL152W, ratio to control without chemical substance, 2 h culture): 1.2
The level of expressed mRNA in the presence of chemical substance/ (yeast gene YJL161W, ratio to control without chemical substance, 2 h culture): 3.6
The level of expressed mRNA in the presence of chemical substance/in the absence of chemical substance (yeast gene YJL167W): 1.5
The level of expressed mRNA in the presence of chemical substance/ (yeast gene YJL171C, ratio to control without chemical substance, 2 h culture): 1.4
The level of expressed mRNA in the presence of chemical substance/in the absence of chemical substance (yeast gene YJL216C): 1.5
The level of expressed mRNA in the presence of chemical substance/The level of expressed mRNA in the absence of chemical substance (yeast gene YJR004C): 0.4
The level of expressed mRNA in the presence of chemical substance/ (yeast gene YJR008W, ratio to control without chemical substance, 2 h culture): 2.9
The level of expressed mRNA in the presence of chemical substance/ (yeast gene YJR054W, ratio to control without chemical): 0.9
The level of expressed mRNA in the presence of chemical substance/The level of expressed mRNA in the absence of chemical substance (yeast gene YJR086W): 1.7
The level of expressed mRNA in the presence of chemical substance/The level of expressed mRNA in the absence of chemical substance (yeast gene YKL008C): 1.4
The level of expressed mRNA in the presence of chemical substance/The level of expressed mRNA in the absence of chemical substance (yeast gene YKL013C): 1.8
The level of expressed mRNA in the presence of chemical substance/The level of expressed mRNA in the absence of chemical substance (yeast gene YKL039W): 2.0
The level of expressed mRNA in the presence of chemical substance/The level of expressed mRNA in the absence of chemical substance (yeast gene YKL041W): 1.0
The level of expressed mRNA in the presence of chemical substance/ (yeast gene YKL071W, ratio to control without chemical substance, 2 h culture): 3.7
The level of expressed mRNA in the presence of chemical substance/ (yeast gene YKL086W, ratio to control without chemical): 0.7
